Among the data in patent US10577363B2, “Substituted piperidine compounds” (EPIZYME, INC., priority 2014, dated 2020) are IC50 values, retold here.

In this experiment the target is SMYD3 (Homo sapiens (Human), UniProt Q9H7B4). Briefly: SMYD3 biochemical assay (SPA, 3H-SAM methylation of MEKK2 protein substrate). The conditions noted are these: read-out: SMYD3 Biochem IC50 (μM)*. The method in brief: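 Methylation of N-terminally GST-tagged MEKK2 by untagged full-length human SMYD3, using 3H-SAM, in pH 8.0 Tris buffer with TCEP, BSG and Tween 20; enzyme and compound sat 30 min at room temperature before substrate addition. Stopped with 100 uM (final) cold SAM; incorporation read by scintillation proximity as dpm/cpm.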

Bounds are passed on as bounds.

A word on the IC50: it is the concentration needed to halve the response being measured. `C[C@@H]1CC(NC(=O)c2cc(C3CC3)on2)CCN1C(=O)CC1(O)CCNCC1` (stereo partly drawn) [compound 167, 5-cyclopropyl-N-((2R)-1-(2-(4-hydroxypiperidin-4-yl)acetyl)-2-methylpiperidin-4-yl)isoxazole-3-carboxamide]: the IC50 amounted to 0.911 µM.
Then `CCC1(C(=O)N2CCC(NC(=O)c3cc(C4CC4)on3)C[C@H]2C)CCNCC1` (stereo partly drawn) [compound 168, 5-cyclopropyl-N-((2R)-1-(4-ethylpiperidine-4-carbonyl)-2-methylpiperidin-4-yl)isoxazole-3-carboxamide], with 3.18 µM; and `CCC1(C(=O)N2CCC(NC(=O)c3cc(C4CC4)on3)C[C@@H]2C)CCNCC1` (stereo partly drawn) [compound 169, 5-cyclopropyl-N-((2S)-1-(4-ethylpiperidine-4-carbonyl)-2-methylpiperidin-4-yl)isoxazole-3-carboxamide], with 3.77 µM; and `C[C@@H]1CC(NC(=O)c2cc(C3CC3)on2)CCN1C(=O)C1(F)CCNCC1` (stereo partly drawn) [compound 170, 5-cyclopropyl-N-((2R)-1-(4-fluoropiperidine-4-carbonyl)-2-methylpiperidin-4-yl)isoxazole-3-carboxamide], with 0.677 µM.
Then `C[C@@H]1C[C@H](NC(=O)c2cc(C3CC3)on2)CCN1C(=O)CCCN` [compound 171, N-((2R,4R)-1-(4-aminobutanoyl)-2-methylpiperidin-4-yl)-5-cyclopropylisoxazole-3-carboxamide], with 3.11 µM; and `C[C@@H]1C[C@H](NC(=O)c2cc(C3CC3)on2)CCN1C(=O)CC(O)CN` (stereo partly drawn) [compound 172, N-((2R,4R)-1-(4-amino-3-hydroxybutanoyl)-2-methylpiperidin-4-yl)-5-cyclopropylisoxazole-3-carboxamide], with 6.78 µM.
As to `C[C@H]1CC(NC(=O)c2cc(C3CC3)on2)CCN1C(=O)CC(O)CN` (stereo partly drawn) [compound 173, N-((2S)-1-(4-amino-3-hydroxybutanoyl)-2-methylpiperidin-4-yl)-5-cyclopropylisoxazole-3-carboxamide], the IC50 is 5.26 µM.
As to `C[C@@H]1CC(NC(=O)c2cc(C3CC3)on2)CCN1C(=O)[C@H]1CCC[C@H](N)C1` (stereo partly drawn) [compound 174, N-((2R)-1-((1S,3S)-3-aminocyclohexane-1-carbonyl)-2-methylpiperidin-4-yl)-5-cyclopropylisoxazole-3-carboxamide], the IC50 came out at 0.728 µM.
For `C[C@H]1CC(NC(=O)c2cc(C3CC3)on2)CCN1C(=O)CCC1CCNC1` (stereo partly drawn) [compound 176, 5-cyclopropyl-N-((2S)-2-methyl-1-(3-(pyrrolidin-3-yl)propanoyl)piperidin-4-yl)isoxazole-3-carboxamide], the IC50 is 0.624 µM.
Turning to `C[C@H]1CC(NC(=O)c2cc(C3CC3)on2)CCN1C(=O)C1CNCC(O)C1` (stereo partly drawn) [compound 177, 5-cyclopropyl-N-((2S)-1-(5-hydroxypiperidine-3-carbonyl)-2-methylpiperidin-4-yl)isoxazole-3-carboxamide], the IC50 is over 10 µM.
With `C[C@H]1CC(NC(=O)c2cc(C3CC3)on2)CCN1C(=O)C1CC2(CCNC2)C1` (stereo partly drawn) [compound 178, 5-cyclopropyl-N-((2S)-2-methyl-1-(6-azaspiro[3.4]octane-2-carbonyl)piperidin-4-yl)isoxazole-3-carboxamide] the figure was 2.02 µM; with `C[C@H]1CC(NC(=O)c2cc(C3CC3)on2)CCN1C(=O)C1CC12CCNCC2` (stereo partly drawn) [compound 179, 5-cyclopropyl-N-((2S)-2-methyl-1-(6-azaspiro[2.5]octane-1-carbonyl)piperidin-4-yl)isoxazole-3-carboxamide], 1.42 µM.
With `C[C@@H]1CC(NC(=O)c2cc(C3CC3)on2)CCN1C(=O)CCC1CCNC1` (stereo partly drawn) [compound 180, 5-cyclopropyl-N-((2R)-2-methyl-1-(3-(pyrrolidin-3-yl)propanoyl)piperidin-4-yl)isoxazole-3-carboxamide] the figure was 0.953 µM; with `N[C@H]1CC[C@@H](C(=O)N2CCC(NC(=O)c3cc(C4CC4)on3)CC2)C1` [compound 182, N-(1-((1R,3S)-3-aminocyclopentane-1-carbonyl)piperidin-4-yl)-5-cyclopropylisoxazole-3-carboxamide], 4.79 µM; with `C[C@@H]1C[C@@H](NC(=O)c2cc(C3CC3)on2)CCN1C(=O)CCCCN` [compound 184, N-((2R,4S)-1-(5-aminopentanoyl)-2-methylpiperidin-4-yl)-5-cyclopropylisoxazole-3-carboxamide], 2.67 µM.
Then `C[C@@H]1C[C@@H](NC(=O)c2cc(C3CC3)on2)CCN1S(=O)(=O)Cc1ccccc1` [compound 185, N-((2R,4S)-1-(benzylsulfonyl)-2-methylpiperidin-4-yl)-5-cyclopropylisoxazole-3-carboxamide], with 4.31 µM; and `C[C@@H]1C[C@@H](NC(=O)c2cc(C3CC3)on2)CCN1S(=O)(=O)CC(F)(F)F` [compound 186, 5-cyclopropyl-N-((2R,4S)-2-methyl-1-((2,2,2-trifluoroethyl)sulfonyl)piperidin-4-yl)isoxazole-3-carboxamide], with over 10 µM; and `C[C@H]1C[C@H](NC(=O)c2cc(C3CC3)on2)CCN1S(=O)(=O)CCCN` [compound 188, N-((2S,4R)-1-((3-aminopropyl)sulfonyl)-2-methylpiperidin-4-yl)-5-cyclopropylisoxazole-3-carboxamide], with 0.0723 µM.
With `CC[C@@H]1CN(C(=O)[C@H]2CC[C@H](N)CC2)CC[C@@H]1NC(=O)c1cc(C2CC2)on1` [compound 190, N-((3R,4S)-1-((1r,4R)-4-aminocyclohexane-1-carbonyl)-3-ethylpiperidin-4-yl)-5-cyclopropylisoxazole-3-carboxamide], the IC50 is 0.352 µM.
Take `N[C@H]1CC[C@H](C(=O)N2C3CCC2CC(NC(=O)c2cc(C4CC4)on2)C3)CC1` (stereo partly shown) [compound 191, N-(8-((1r,4r)-4-aminocyclohexane-1-carbonyl)-8-azabicyclo[3.2.1]octan-3-yl)-5-cyclopropylisoxazole-3-carboxamide]: the IC50 was over 10 µM.
For `CCOC(=O)[C@@H]1CC(NC(=O)c2cc(C3CC3)on2)CCN1C(=O)[C@H]1CC[C@H](N)CC1` (stereo partly drawn) [compound 192, ethyl (2S)-1-((1r,4S)-4-aminocyclohexane-1-carbonyl)-4-(5-cyclopropylisoxazole-3-carboxamido)piperidine-2-carboxylate], the IC50 came to 7.08 µM.
With `C[C@@H]1CN(C(=O)CCCN)CC[C@@H]1NC(=O)c1cc(C2CC2)on1` [compound 193, N-((3R,4S)-1-(4-aminobutanoyl)-3-methylpiperidin-4-yl)-5-cyclopropylisoxazole-3-carboxamide] the figure was 2.87 µM.
With `C[C@H]1CN(C(=O)CCCN)CC[C@H]1NC(=O)c1cc(C2CC2)on1` [compound 194, N-((3S,4R)-1-(4-aminobutanoyl)-3-methylpiperidin-4-yl)-5-cyclopropylisoxazole-3-carboxamide] the figure was 1.37 µM.
Regarding `C[C@@H]1CN(C(=O)CCCN)CC[C@H]1NC(=O)c1cc(C2CC2)on1` [compound 195, N-((3R,4R)-1-(4-aminobutanoyl)-3-methylpiperidin-4-yl)-5-cyclopropylisoxazole-3-carboxamide], the IC50 is over 10 µM.
On to `C[C@H]1CN(C(=O)CCCN)CC[C@@H]1NC(=O)c1cc(C2CC2)on1` [compound 196, N-((3S,4S)-1-(4-aminobutanoyl)-3-methylpiperidin-4-yl)-5-cyclopropylisoxazole-3-carboxamide], for which the IC50 amounted to 6.91 µM.
Then `NCCCC(=O)N1CCC(NC(=O)c2cc(C3CC3)on2)C(F)(F)C1` (stereo not shown) [compound 197, N-(1-(4-aminobutanoyl)-3,3-difluoropiperidin-4-yl)-5-cyclopropylisoxazole-3-carboxamide], with over 10 µM; and `NCCCC(=O)N1CCC(NC(=O)c2cc(C3CC3)on2)C2(CC2)C1` (stereo not shown) [compound 198, N-(5-(4-aminobutanoyl)-5-azaspiro[2.5]octan-8-yl)-5-cyclopropylisoxazole-3-carboxamide], with 0.83 µM.
For the molecule `NCCCC(=O)N1C2CCC1CC(NC(=O)c1cc(C3CC3)on1)C2` (stereo not shown) [compound 199, N-(8-(4-aminobutanoyl)-8-azabicyclo[3.2.1]octan-3-yl)-5-cyclopropylisoxazole-3-carboxamide], the IC50 came out at 0.678 µM.
Take `C[C@H]1CC(NC(=O)c2cc(C3CC3)on2)CCN1C(=O)N1CCC(N)CC1` (stereo partly drawn) [compound 201, N-((2S)-1-(4-aminopiperidine-1-carbonyl)-2-methylpiperidin-4-yl)-5-cyclopropylisoxazole-3-carboxamide]: the IC50 was 2.23 µM.
`CC1C(NC(=O)c2cc(C3CC3)on2)CCN(C(=O)[C@H]2CC[C@H](N)CC2)C1C` (stereo partly shown) [compound 203, N-(1-((1r,4r)-4-aminocyclohexane-1-carbonyl)-2,3-dimethylpiperidin-4-yl)-5-cyclopropylisoxazole-3-carboxamide]: the half-inhibitory concentration (IC50) turned out to be 0.379 µM.
Then `C[C@H]1CC(NC(=O)c2cc(C3CC3)on2)CCN1C(=O)CC1(CN)CCC1` (stereo partly drawn) [compound 204, N-((2S)-1-(2-(1-(aminomethyl)cyclobutyl)acetyl)-2-methylpiperidin-4-yl)-5-cyclopropylisoxazole-3-carboxamide], with 4.68 µM; and `C[C@@H]1CC(NC(=O)c2cc(C3CC3)on2)CCN1C(=O)CC1(CN)CCC1` (stereo partly drawn) [compound 205, N-((2R)-1-(2-(1-(aminomethyl)cyclobutyl)acetyl)-2-methylpiperidin-4-yl)-5-cyclopropylisoxazole-3-carboxamide], with 1.99 µM.
Then `CC1CNCCC1CC(=O)N1CCC(NC(=O)c2cc(C3CC3)on2)C[C@@H]1C` (stereo partly drawn) [compound 206, 5-cyclopropyl-N-((2S)-2-methyl-1-(2-(3-methylpiperidin-4-yl)acetyl)piperidin-4-yl)isoxazole-3-carboxamide], with 1.59 µM; and `C[C@H]1CC(NC(=O)c2cc(C3CC3)on2)CCN1C(=O)C1(F)CCNCC1` (stereo partly drawn) [compound 207, 5-cyclopropyl-N-((2S)-1-(4-fluoropiperidine-4-carbonyl)-2-methylpiperidin-4-yl)isoxazole-3-carboxamide], with 2.6 µM.
